Tests used:
human P2X2/3 receptor = biological target: T1, human P2X2/3 receptor (Homo sapiens, UniProt P56373+Q9UBL9); assay: P2X2/3 FLIPR (Fluorometric Imaging Plate Reader) assay, CHO-K1 cells; type: cell-based; settings: CHO-K1 cells transfected with human P2X2/3; agonist α,β-meATP 5 μM; Fluo-3 calcium fluorescence; read-out: pIC50 for the P2X2/3 receptor (converted)
T1 construct: expressed in transfected cells; host or cells: CHO-K1
T1 sequence (Q9UBL9 1-471): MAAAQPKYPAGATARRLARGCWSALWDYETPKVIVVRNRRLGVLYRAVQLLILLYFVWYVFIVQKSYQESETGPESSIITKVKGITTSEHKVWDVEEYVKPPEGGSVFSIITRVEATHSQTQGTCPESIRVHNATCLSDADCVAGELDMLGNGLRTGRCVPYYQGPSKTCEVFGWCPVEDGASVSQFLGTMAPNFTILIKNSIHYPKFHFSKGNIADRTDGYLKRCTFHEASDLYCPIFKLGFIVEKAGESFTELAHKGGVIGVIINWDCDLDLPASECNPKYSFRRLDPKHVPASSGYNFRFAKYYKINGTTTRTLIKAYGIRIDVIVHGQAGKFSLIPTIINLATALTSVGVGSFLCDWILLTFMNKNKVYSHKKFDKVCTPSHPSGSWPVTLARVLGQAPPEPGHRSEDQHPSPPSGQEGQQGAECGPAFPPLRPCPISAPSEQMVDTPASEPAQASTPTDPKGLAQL
T1 sequence (P56373 1-397): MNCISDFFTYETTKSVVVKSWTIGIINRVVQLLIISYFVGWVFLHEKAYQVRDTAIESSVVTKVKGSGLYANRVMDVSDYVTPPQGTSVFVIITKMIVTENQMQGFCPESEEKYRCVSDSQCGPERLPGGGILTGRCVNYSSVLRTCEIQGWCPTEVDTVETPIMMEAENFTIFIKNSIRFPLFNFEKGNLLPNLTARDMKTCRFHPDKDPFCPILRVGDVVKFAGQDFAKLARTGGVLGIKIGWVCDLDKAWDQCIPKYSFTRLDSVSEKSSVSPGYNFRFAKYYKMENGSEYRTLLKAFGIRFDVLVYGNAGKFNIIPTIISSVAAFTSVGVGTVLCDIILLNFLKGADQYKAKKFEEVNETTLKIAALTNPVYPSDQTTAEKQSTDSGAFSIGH
Procedure: (§1) CHO-K1 cells were transfected with cloned rat P2X3 or human P2X2/3 receptor subunits and passaged in flasks. 18-24 hours before the FLIPR experiment, cells were released from their flasks, centrifuged, and resuspended in nutrient medium at 2.5×10^5 cells/ml. The cells were aliquoted into black-walled 96-well plates at a density of 50,000 cells/well and incubated overnight in 5% CO2 at 37° C. On the day of the experiment, cells were washed in FLIPR buffer (calcium- and magnesium-free Hank's balanced salt solution, 10 mM HEPES, 2 mM CaCl2, 2.5 mM probenecid; FB). Each well received 100 μl FB and 100 μl of the fluorescent dye Fluo-3 AM [2 μM final conc.]. […]
(§2) Test compounds (dissolved in DMSO at 10 mM and serially diluted with FB) or vehicle were added to each well (25 μl of a 4× solution) and allowed to equilibrate for 20 minutes at room temperature. The plates were then placed in the FLIPR and a baseline fluorescence measurement (excitation at 488 nm and emission at 510-570 nm) was obtained for 10 seconds before a 100 μl/well agonist or vehicle addition. […] Fluorescence was measured for an additional 2 minutes at 1 second intervals after agonist addition. A final addition of ionomycin (5 μM, final concentration) was made to each well of the FLIPR test plate to establish cell viability and maximum fluorescence of dye-bound cytosolic calcium. […]

rat P2X3 receptor = biological target: T2, rat P2X3 receptor (Rattus norvegicus, UniProt P49654); assay: P2X3 FLIPR (Fluorometric Imaging Plate Reader) assay, CHO-K1 cells; type: cell-based; settings: CHO-K1 cells transfected with rat P2X3; agonist α,β-meATP 1 μM; Fluo-3 calcium fluorescence; read-out: pIC50 for the P2X3 receptor (converted)
T2 construct: expressed in transfected cells; host or cells: CHO-K1
T2 sequence (P49654 1-397): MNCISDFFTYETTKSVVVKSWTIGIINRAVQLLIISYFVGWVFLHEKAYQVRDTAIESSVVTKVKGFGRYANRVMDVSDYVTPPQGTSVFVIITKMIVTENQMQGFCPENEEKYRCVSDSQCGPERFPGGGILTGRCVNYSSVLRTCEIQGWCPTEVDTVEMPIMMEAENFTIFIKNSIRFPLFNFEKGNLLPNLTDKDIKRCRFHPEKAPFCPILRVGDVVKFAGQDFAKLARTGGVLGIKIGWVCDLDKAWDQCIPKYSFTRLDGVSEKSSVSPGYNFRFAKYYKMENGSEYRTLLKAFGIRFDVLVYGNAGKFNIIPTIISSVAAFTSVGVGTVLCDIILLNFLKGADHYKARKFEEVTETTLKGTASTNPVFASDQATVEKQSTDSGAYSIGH
Procedure: as §1, §2

Row | melting point | IC50 (human P2X2/3 receptor) | IC50 (rat P2X3 receptor) | SMILES
1 | 156 to 159 °C | – | – | C#Cc1ccc(I)c(Oc2cnc(N)nc2N)c1 [Compound 27, 5-(5-Ethynyl-2-iodo-phenoxy)-pyrimidine-2,4-diamine]
2 | – | ~10.2 nM | ~5.75 nM | C#Cc1cc(Oc2cnc(N)nc2N)c(C(C)C)cc1O [4-(2,4-Diamino-pyrimidin-5-yloxy)-2-ethynyl-5-isopropyl-phenol]
3 | 163.2 to 164.1 °C | – | – | C#Cc1cc(Oc2cnc(N)nc2N)c(C#C)cc1OC [Compound 25, 5-(2,5-Diethynyl-4-methoxy-phenoxy)-pyrimidine-2,4-diamine]
4 | 225.5 to 226.8 °C | – | – | COc1cc(C(C)C)c(Oc2cnc(N)nc2N)cc1C#CC1CC1 [Compound 19, 5-(5-Cyclopropylethynyl-2-isopropyl-4-methoxy-phenoxy)-pyrimidine-2,4-diamine]
